Each compound was assayed on HCT116 (assay: Cellular HCT116 viability assay (CellTiter-Glo, 72 hours)). Details: Homo sapiens, HCT-116.
Assay type: cell-based
Summary of the method: (§1)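 Steps: seed cells at per-line density; add compound, DMSO vehicle kept under 0.1% final; incubate 72 h, 37 °C, 5% CO2; lyse with CellTiter-Glo and read luminescence; run in duplicate.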

IC50 [nM]	SMILES
< 1000	CC(C)c1cnn2c(NCc3ccccc3-n3cc4cc(C(=O)N5CCCC5)ccc4n3)nc(N3CCC(N)CC3)nc12 [Compound 147]
< 1000	CC(C)c1cnn2c(NCc3ccccc3-c3cn4c(n3)CCCC4)nc(N3CCC(N)CC3)nc12 [Compound 122]
< 1000	CC(C)c1cnn2c(NCc3c(Cl)cccc3-c3ccc4[nH]cnc4c3)nc(N3CCC(N)CC3)nc12 [Compound 136]
< 1000	CC(C)c1cnn2c(NCc3ccccc3-n3cc4cc(C(N)=O)ccc4n3)nc(N3CCC(N)CC3)nc12 [Compound 146]

The compounds below were run on H460 (assay: Cellular H460 viability assay (CellTiter-Glo, 72 hours)). Details: Homo sapiens, NCI-H460.
Assay type: cell-based
Summary of the method: as §1

IC50 [nM]	SMILES
< 1000	CC(C)c1cnn2c(NCc3ccccc3-n3cc4cc(C(=O)N5CCCC5)ccc4n3)nc(N3CCC(N)CC3)nc12 [Compound 147]
< 1000	CC(C)c1cnn2c(NCc3ccccc3-c3cn4c(n3)CCCC4)nc(N3CCC(N)CC3)nc12 [Compound 122]
1000 to 10000	CC(C)c1cnn2c(NCc3c(Cl)cccc3-c3ccc4[nH]cnc4c3)nc(N3CCC(N)CC3)nc12 [Compound 136]
< 1000	CC(C)c1cnn2c(NCc3ccccc3-n3cc4cc(C(N)=O)ccc4n3)nc(N3CCC(N)CC3)nc12 [Compound 146]

The compounds below were run against T1, CDK2/Cyclin A (Homo sapiens, UniProt P24941) (assay: Enzymatic assay for CDK2 (FRET based LANCE Ultra kinase assay)). Details: read-out: CDK2 enzymatic activity (IC50 range).
T1 construct: purchased Invitrogen PV6290
Assay type: biochemical
Summary of the method: (§2)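 LANCE Ultra TR-FRET: ULight-MBP peptide (68 nM) with ATP at Km, […], 60 min at 23° C. EDTA plus Eu-anti-phospho-MBP added, another 60 min, then 665/615 nm emission read. Compounds tested as 8-dose 4-fold DMSO dilutions.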

IC50 [nM]	SMILES
> 1000	CC(C)c1cnn2c(NCc3ccccc3-n3cc4cc(C(=O)N5CCCC5)ccc4n3)nc(N3CCC(N)CC3)nc12 [Compound 147]
100 to 1000	CC(C)c1cnn2c(NCc3ccccc3-c3cn4c(n3)CCCC4)nc(N3CCC(N)CC3)nc12 [Compound 122]
> 1000	CC(C)c1cnn2c(NCc3c(Cl)cccc3-c3ccc4[nH]cnc4c3)nc(N3CCC(N)CC3)nc12 [Compound 136]
100 to 1000	CC(C)c1cnn2c(NCc3ccccc3-n3cc4cc(C(N)=O)ccc4n3)nc(N3CCC(N)CC3)nc12 [Compound 146]

The compounds below were run against T2, CDK5/p25 (Homo sapiens, UniProt Q00535) (assay: Enzymatic assay for CDK5 (FRET based LANCE Ultra kinase assay)). Details: read-out: CDK5 enzymatic activity (IC50 range).
T2 construct: purchased Invitrogen PR8543B
Assay type: biochemical
Summary of the method: as §2

T2 sequence (Q00535 whole entry): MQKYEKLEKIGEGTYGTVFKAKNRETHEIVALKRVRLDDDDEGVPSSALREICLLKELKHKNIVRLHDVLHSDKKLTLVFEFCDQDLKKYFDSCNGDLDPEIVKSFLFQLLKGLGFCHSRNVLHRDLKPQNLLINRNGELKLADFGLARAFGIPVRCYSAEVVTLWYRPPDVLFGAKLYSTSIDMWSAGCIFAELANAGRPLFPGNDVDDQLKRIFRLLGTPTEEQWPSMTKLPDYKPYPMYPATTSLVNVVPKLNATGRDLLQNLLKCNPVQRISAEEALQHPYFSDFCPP
T2 sequence (Q15078 99-307 partner limits assumed): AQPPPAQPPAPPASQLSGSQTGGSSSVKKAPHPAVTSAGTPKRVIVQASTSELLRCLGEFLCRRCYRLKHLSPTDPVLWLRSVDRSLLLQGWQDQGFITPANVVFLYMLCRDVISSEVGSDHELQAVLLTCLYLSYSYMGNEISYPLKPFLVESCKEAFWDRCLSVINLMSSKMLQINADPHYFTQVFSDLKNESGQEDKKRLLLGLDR

IC50 [nM]	SMILES
100 to 1000	CC(C)c1cnn2c(NCc3ccccc3-n3cc4cc(C(=O)N5CCCC5)ccc4n3)nc(N3CCC(N)CC3)nc12 [Compound 147]
100 to 1000	CC(C)c1cnn2c(NCc3ccccc3-c3cn4c(n3)CCCC4)nc(N3CCC(N)CC3)nc12 [Compound 122]
100 to 1000	CC(C)c1cnn2c(NCc3c(Cl)cccc3-c3ccc4[nH]cnc4c3)nc(N3CCC(N)CC3)nc12 [Compound 136]
100 to 1000	CC(C)c1cnn2c(NCc3ccccc3-n3cc4cc(C(N)=O)ccc4n3)nc(N3CCC(N)CC3)nc12 [Compound 146]

What follows are compounds tested on RPMI-8226 (assay: Cellular RPMI-8226 viability assay (CellTiter-Glo, 72 hours)). Details: Homo sapiens.
Assay type: cell-based
Protocol: All cell lines were routinely tested for mycoplasma.
The effect of the CDK7 inhibitor to inhibit the growth of target cancer cells was evaluated through the 72 hours time period of viability assay. Briefly, the candidate cell line ware plated in 96 well plate at the following density of cells respectively. […] DMSO solvent without compound served as a control and final DMSO concentration less than 0.1%. After 72 hours of incubation at 37° C., 5% CO2 incubator, cells were analyzed for the viability using the CellTiter-Glo Luminescent Cell Viability Assay (Promega, Cat #G7570). All viability assays were performed in duplicate and Luminescence was read using an Envision (Perkin Elmer, USA). Data was analyzed using XLfit software.

IC50 [nM]	SMILES
1000 to 10000	CC(C)c1cnn2c(NCc3ccccc3-n3cc4cc(C(=O)N5CCCC5)ccc4n3)nc(N3CCC(N)CC3)nc12 [Compound 147]
< 1000	CC(C)c1cnn2c(NCc3ccccc3-c3cn4c(n3)CCCC4)nc(N3CCC(N)CC3)nc12 [Compound 122]
1000 to 10000	CC(C)c1cnn2c(NCc3c(Cl)cccc3-c3ccc4[nH]cnc4c3)nc(N3CCC(N)CC3)nc12 [Compound 136]
< 1000	CC(C)c1cnn2c(NCc3ccccc3-n3cc4cc(C(N)=O)ccc4n3)nc(N3CCC(N)CC3)nc12 [Compound 146]

The compounds below were run on MV4-11 (assay: Cellular MV4-11 viability assay (CellTiter-Glo, 72 hours)). Details: Homo sapiens.
Assay type: cell-based
Summary of the method: as §1

IC50 [nM]	SMILES
< 1000	CC(C)c1cnn2c(NCc3ccccc3-n3cc4cc(C(=O)N5CCCC5)ccc4n3)nc(N3CCC(N)CC3)nc12 [Compound 147]
< 1000	CC(C)c1cnn2c(NCc3ccccc3-c3cn4c(n3)CCCC4)nc(N3CCC(N)CC3)nc12 [Compound 122]
< 1000	CC(C)c1cnn2c(NCc3c(Cl)cccc3-c3ccc4[nH]cnc4c3)nc(N3CCC(N)CC3)nc12 [Compound 136]
< 1000	CC(C)c1cnn2c(NCc3ccccc3-n3cc4cc(C(N)=O)ccc4n3)nc(N3CCC(N)CC3)nc12 [Compound 146]

What follows are compounds tested against T3, CDK7/Cyclin H/MNAT1 (Homo sapiens, UniProt P50613) (assay: Enzymatic assay for CDK7 (FRET based LANCE Ultra kinase assay)). Details: CDK7 over CDK1.
T3 construct: purchased Invitrogen PR6749B
Assay type: biochemical
Summary of the method: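 LANCE Ultra TR-FRET kinase assay using a ULight-labeled peptide substrate and a Eu-labeled anti-phospho antibody, with ATP at its Km. Purified CDK/cyclin complex was added to compound after brief centrifugation.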

T3 sequence (P50613 whole entry): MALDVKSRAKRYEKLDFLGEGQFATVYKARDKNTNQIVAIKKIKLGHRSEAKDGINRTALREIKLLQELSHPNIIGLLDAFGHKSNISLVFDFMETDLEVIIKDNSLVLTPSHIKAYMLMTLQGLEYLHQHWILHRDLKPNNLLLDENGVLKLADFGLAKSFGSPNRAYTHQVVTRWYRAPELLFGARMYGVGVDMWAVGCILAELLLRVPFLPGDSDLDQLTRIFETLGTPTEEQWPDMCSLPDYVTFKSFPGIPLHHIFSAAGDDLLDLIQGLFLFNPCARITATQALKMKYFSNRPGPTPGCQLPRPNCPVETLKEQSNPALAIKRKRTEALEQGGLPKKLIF
T3 sequence (P51946 whole entry partner): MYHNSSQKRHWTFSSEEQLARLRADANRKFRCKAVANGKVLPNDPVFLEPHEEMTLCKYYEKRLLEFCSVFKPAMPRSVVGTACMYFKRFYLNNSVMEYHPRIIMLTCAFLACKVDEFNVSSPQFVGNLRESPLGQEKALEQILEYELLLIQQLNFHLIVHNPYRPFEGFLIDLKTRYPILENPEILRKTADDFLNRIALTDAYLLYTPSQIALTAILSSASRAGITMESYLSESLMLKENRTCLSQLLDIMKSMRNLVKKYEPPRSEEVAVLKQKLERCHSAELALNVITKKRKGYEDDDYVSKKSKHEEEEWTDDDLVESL
T3 sequence (P51948 whole entry partner): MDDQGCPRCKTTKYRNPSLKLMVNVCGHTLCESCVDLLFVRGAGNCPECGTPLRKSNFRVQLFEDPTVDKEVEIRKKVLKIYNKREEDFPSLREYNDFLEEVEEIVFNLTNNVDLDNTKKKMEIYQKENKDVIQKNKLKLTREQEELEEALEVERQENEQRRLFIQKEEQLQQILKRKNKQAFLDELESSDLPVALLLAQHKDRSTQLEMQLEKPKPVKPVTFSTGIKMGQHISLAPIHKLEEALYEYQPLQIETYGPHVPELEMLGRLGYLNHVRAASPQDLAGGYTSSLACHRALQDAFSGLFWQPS

CDK1/CDK7: Selectivity of CDK7 inhibition over CDK1 inhibition	SMILES
A (A=greater than 200 fold)	CC(C)c1cnn2c(NCc3ccccc3-n3cc4cc(C(=O)N5CCCC5)ccc4n3)nc(N3CCC(N)CC3)nc12 [Compound 147]
A (A=greater than 200 fold)	CC(C)c1cnn2c(NCc3ccccc3-c3cn4c(n3)CCCC4)nc(N3CCC(N)CC3)nc12 [Compound 122]
A (A=greater than 200 fold)	CC(C)c1cnn2c(NCc3c(Cl)cccc3-c3ccc4[nH]cnc4c3)nc(N3CCC(N)CC3)nc12 [Compound 136]
A (A=greater than 200 fold)	CC(C)c1cnn2c(NCc3ccccc3-n3cc4cc(C(N)=O)ccc4n3)nc(N3CCC(N)CC3)nc12 [Compound 146]

Same assay, conditions: CDK7 over CDK2

SMILES	CDK2/CDK7: Selectivity of CDK7 inhibition over CDK2 inhibition
CC(C)c1cnn2c(NCc3ccccc3-n3cc4cc(C(=O)N5CCCC5)ccc4n3)nc(N3CCC(N)CC3)nc12 [Compound 147]	B (B=less than 200 fold, but greater than 20 fold)
CC(C)c1cnn2c(NCc3ccccc3-c3cn4c(n3)CCCC4)nc(N3CCC(N)CC3)nc12 [Compound 122]	B (B=less than 200 fold, but greater than 20 fold)
CC(C)c1cnn2c(NCc3c(Cl)cccc3-c3ccc4[nH]cnc4c3)nc(N3CCC(N)CC3)nc12 [Compound 136]	A (A=greater than 200 fold)
CC(C)c1cnn2c(NCc3ccccc3-n3cc4cc(C(N)=O)ccc4n3)nc(N3CCC(N)CC3)nc12 [Compound 146]	A (A=greater than 200 fold)

Same assay, conditions: CDK7 over CDK5

SMILES	CDK5/CDK7: Selectivity of CDK7 inhibition over CDK5 inhibition
CC(C)c1cnn2c(NCc3ccccc3-n3cc4cc(C(=O)N5CCCC5)ccc4n3)nc(N3CCC(N)CC3)nc12 [Compound 147]	B (B=less than 200 fold, but greater than 20 fold)
CC(C)c1cnn2c(NCc3ccccc3-c3cn4c(n3)CCCC4)nc(N3CCC(N)CC3)nc12 [Compound 122]	B (B=less than 200 fold, but greater than 20 fold)
CC(C)c1cnn2c(NCc3c(Cl)cccc3-c3ccc4[nH]cnc4c3)nc(N3CCC(N)CC3)nc12 [Compound 136]	B (B=less than 200 fold, but greater than 20 fold)
CC(C)c1cnn2c(NCc3ccccc3-n3cc4cc(C(N)=O)ccc4n3)nc(N3CCC(N)CC3)nc12 [Compound 146]	B (B=less than 200 fold, but greater than 20 fold)

Same assay, conditions: read-out: CDK7 enzymatic activity (IC50 range)

IC50 [nM]	SMILES
< 100	CC(C)c1cnn2c(NCc3ccccc3-n3cc4cc(C(=O)N5CCCC5)ccc4n3)nc(N3CCC(N)CC3)nc12 [Compound 147]
< 100	CC(C)c1cnn2c(NCc3ccccc3-c3cn4c(n3)CCCC4)nc(N3CCC(N)CC3)nc12 [Compound 122]
< 100	CC(C)c1cnn2c(NCc3c(Cl)cccc3-c3ccc4[nH]cnc4c3)nc(N3CCC(N)CC3)nc12 [Compound 136]
< 100	CC(C)c1cnn2c(NCc3ccccc3-n3cc4cc(C(N)=O)ccc4n3)nc(N3CCC(N)CC3)nc12 [Compound 146]

What follows are compounds tested against T4, CDK1/Cyclin B (Homo sapiens, UniProt P06493) (assay: Enzymatic assay for CDK1 (FRET based LANCE Ultra kinase assay)). Details: read-out: CDK1 enzymatic activity (IC50 range).
T4 construct: purchased Invitrogen PR4768C
Assay type: biochemical
Summary of the method: as §2

T4 sequence (P06493 whole entry): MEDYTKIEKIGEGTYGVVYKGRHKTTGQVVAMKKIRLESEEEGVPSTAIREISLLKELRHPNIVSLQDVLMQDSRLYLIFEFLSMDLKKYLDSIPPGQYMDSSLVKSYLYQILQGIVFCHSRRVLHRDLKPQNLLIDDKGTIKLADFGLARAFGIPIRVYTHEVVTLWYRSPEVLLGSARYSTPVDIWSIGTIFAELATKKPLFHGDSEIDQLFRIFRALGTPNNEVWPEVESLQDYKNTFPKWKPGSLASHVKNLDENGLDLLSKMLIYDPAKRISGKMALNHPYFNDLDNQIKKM
T4 sequence (P14635 whole entry partner): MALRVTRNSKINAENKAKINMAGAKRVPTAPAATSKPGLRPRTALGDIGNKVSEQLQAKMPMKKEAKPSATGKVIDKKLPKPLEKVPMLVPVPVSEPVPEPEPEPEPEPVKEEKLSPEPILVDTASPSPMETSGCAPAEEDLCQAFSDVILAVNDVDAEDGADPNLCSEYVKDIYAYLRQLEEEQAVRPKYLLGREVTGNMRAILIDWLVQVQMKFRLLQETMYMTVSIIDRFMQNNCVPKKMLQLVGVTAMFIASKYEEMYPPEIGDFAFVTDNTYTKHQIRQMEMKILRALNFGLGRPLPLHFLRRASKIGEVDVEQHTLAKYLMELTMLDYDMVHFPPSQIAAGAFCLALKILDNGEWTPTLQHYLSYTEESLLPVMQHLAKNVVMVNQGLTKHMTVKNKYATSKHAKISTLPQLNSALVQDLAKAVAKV

IC50 [nM]	SMILES
> 1000	CC(C)c1cnn2c(NCc3ccccc3-n3cc4cc(C(=O)N5CCCC5)ccc4n3)nc(N3CCC(N)CC3)nc12 [Compound 147]
> 1000	CC(C)c1cnn2c(NCc3ccccc3-c3cn4c(n3)CCCC4)nc(N3CCC(N)CC3)nc12 [Compound 122]
> 1000	CC(C)c1cnn2c(NCc3c(Cl)cccc3-c3ccc4[nH]cnc4c3)nc(N3CCC(N)CC3)nc12 [Compound 136]
100 to 1000	CC(C)c1cnn2c(NCc3ccccc3-n3cc4cc(C(N)=O)ccc4n3)nc(N3CCC(N)CC3)nc12 [Compound 146]
